The record followed here is patent publication US7855215B2, “Cyclic diaryl ureas suitable as tyrosine kinase inhibitors” (Novartis AG, priority 2004, dated 2010).

`CNc1cc(Oc2ccc3c(c2)CCCN3C(=O)Nc2ccc(C(C)(C)C)cc2)ncn1` [Example 3, 6-(6-Methylamino-pyrimidin-4-yloxy)-3,4-dihydro-2H-quinoline-1-carboxylic acid (4-tert.butyl-phenyl)-amide] registered a melting point of 175 to 176 °C.

Turning to `Nc1nc(Cl)cc(Oc2ccc3c(c2)CCCCN3C(=O)Nc2cccc(C(F)(F)F)c2)n1` [Example 6, 7-(2-Amino-6-chloro-pyrimidin-4-yloxy)-2,3,4,5-tetrahydro-benzo[b]azepine-1-carboxylic acid (3-trifluoromethyl-phenyl)-amide], the melting point is 175 °C.

Turning to `Nc1nccc(Oc2ccc3c(c2)CCCCN3C(=O)Nc2cccc(C(F)(F)F)c2)n1` [Example 7, 7-(2-Amino-pyrimidin-4-yloxy)-2,3,4,5-tetrahydro-benzo[b]azepine-1-carboxylic acid (3-trifluoromethyl-phenyl)-amide], the melting point worked out at 207 °C.

`O=C(Nc1cccc(C(F)(F)F)c1)N1CCCCc2cc(Oc3cc(Cl)ncn3)ccc21` [Example 8, 7-(6-Chloro-pyrimidin-4-yloxy)-2,3,4,5-tetrahydro-benzo[b]azepine-1-carboxylic acid (3-trifluoromethyl-phenyl)-amide] displayed a melting point of 120 °C.

`CN1CCN(CCCNc2cc(Oc3ccc4c(c3)CCN4C(=O)Nc3cccc(C(F)(F)F)c3)ncn2)CC1` [Example 18, 5-{6-[3-(4-Methylpiperazin-1-yl)-propylamino]-pyrimidin-4-yloxy}-2,3-dihydro-indole-1-carboxylic acid (3-trifluormethyl-phenyl)-amide]: the melting point worked out at 163 °C.

As for `CC(C)Nc1cc(Oc2ccc3c(c2)CCN3C(=O)Nc2cccc(C(F)(F)F)c2)ncn1` [Example 19, 5-(6-Isopropylamino-pyrimidin-4-yloxy)-2,3-dihydro-indole-1-carboxylic acid (3-trifluormethyl-phenyl)-amide], the melting point was 189 °C.

In turn, `CN1CCN(Cc2ccc(NC(=O)N3CCCc4cc(Oc5ccnc(N)n5)ccc43)cc2C(F)(F)F)CC1` [Example 33, 6-(2-Amino-pyrimidin-4-yloxy)-3,4-dihydro-2H-quinoline-1-carboxylic acid [4-(4-methyl-piperazin-1-ylmethyl)-3-trifluoromethyl-phenyl]-amide] showed a melting point of 120 to 123 °C.

`CC(C)(CCC(=O)Nc1cc(Oc2ccc3c(c2)CCN3C(=O)Nc2ccc(N3CCOCC3)c(C(F)(F)F)c2)ncn1)[N+](=O)[O-]` [Example 38] returned a melting point of 193 to 197 °C.

As to `CC(C)(N)CCC(=O)Nc1cc(Oc2ccc3c(c2)CCN3C(=O)Nc2ccc(N3CCOCC3)c(C(F)(F)F)c2)ncn1` [Example 39], the melting point was in the range of 211 to 214 °C.

Compound `O=C(Nc1cc(Oc2ccc3c(c2)CCN3C(=O)Nc2ccc(N3CCOCC3)c(C(F)(F)F)c2)ncn1)c1cccnc1` [Example 40] yielded a melting point of 253 to 258 °C.

The compound `COC(=O)Nc1cc(Oc2ccc3c(c2)CCN3C(=O)Nc2ccc(N3CCOCC3)c(C(F)(F)F)c2)ncn1` [Example 41] yielded a melting point of 206 to 209 °C.

`CN1CCN(C(=O)Nc2cc(Oc3ccc4c(c3)CCN4C(=O)Nc3ccc(N4CCOCC4)c(C(F)(F)F)c3)ncn2)CC1` [Example 42] displayed a melting point of 175 to 177 °C.

As to `O=C(Nc1ccccc1)c1cc(Oc2ccc3c(c2)CCN3C(=O)Nc2cccc(C(F)(F)F)c2)ncn1` [Example 74, 5-(6-Phenylcarbamoyl-pyrimidin-4-yloxy)-2,3-dihydro-indole-1-carboxylic acid (3-trifluoromethyl-phenyl)-amide], the melting point lay in the range of 227 to 229 °C.
